According to patent publication US20230049145A1, “GLYCOSYLATED POLYPEPTIDES” (FRESENIUS KABI DEUTSCHLAND GMBH, priority 2019, published 2023):

Columns and labels:
Sp2/0 cells [1] = experiment: Cell viability of Sp2/0 perfusion cultures supplemented with kifunensine; assay type: cell-based, Murine; conditions: Sp2/0 perfusion cultures, 3, 6, 9 or 12 μg/L kifunensine (13, 26, 39 or 52 nM), 30 days
Experimental: (§1) Murine Sp2/0 cells transfected with expression vectors encoding SEQ ID NOs: 1 and 2 (which correspond to the heavy and light chains respectively of the human anti-TNFα IgG1 monoclonal antibody, golimumab) were cultured in perfusion bioreactors for 30 days under standard operating parameters. To examine the effect of kifunensine on the sialylation levels of the resulting IgG1, the perfusion cultures were supplemented with either 3, 6, 9, or 12 μg/L kifunensine (corresponding to 13 nM, 26 nM, 39 nM or 52 nM). A control culture was also maintained under the same conditions albeit in the absence of kifunensine.

Sp2/0 cells [2] = experiment: Sialylation of human IgG1 antibody (golimumab) produced in Sp2/0 cells in perfusion culture supplemented with kifunensine; glycan analysis by HILIC; assay type: cell-based, Murine; conditions: IgG1 (golimumab) from Sp2/0 cells
Experimental: as §1
(§2) On culture day 18, samples were taken from the perfusion bioreactors and the percentage sialylation of the IgG1 antibodies was determined by glycan analysis. Briefly, antibodies were first purified using protein A chromatography, glycans were then enzymatically released from the antibody, fluorescently labelled with 2-aminobenzamide and analysed using hydrophilic interaction chromatography (HILIC) based methods.

CHO cells [3] = experiment: Glycosylation profile of recombinant human EPO produced in CHO cells in perfusion culture supplemented with kifunensine; assay type: cell-based, Chinese hamster; conditions: CHO perfusion culture 18 days, 12 μg/L kifunensine from day 0
Experimental: CHO cells transfected with expression vectors encoding recombinant human EPO (UniProt Accession No. P01588, Sequence Version 1, Entry Version 195) are cultured in perfusion bioreactors for 18 days under standard operating parameters. The culture medium is supplemented with 12 μg/L kifunensine from day 0.
Recombinant human EPO produced during the culture period is harvested throughout the production phase and at the end of the culture period, a sample is obtained to determine the glycosylation profile. The resultant recombinant human EPO has increased mannosylation and sialylation compared to that produced in cultures without kifunensine.

CHO cells [4] = experiment: Fc-glycan sialylation of human IgG2 antibody (denosumab) produced in CHO cells in fed-batch culture supplemented with kifunensine; assay type: cell-based, Chinese hamster; conditions: IgG2 (denosumab) from CHO cells, day 20, FIG. 2
Experimental: as §2
(§3) CHO cells transfected with expression vectors encoding SEQ ID NOs: 3 and 4 (which correspond to the heavy and lights chains respectively of the human anti-RANKL IgG2 monoclonal antibody, denosumab) were cultured in bioreactors using standard fed-batch methods. To examine the effects of kifunensine on the Fc-glycan sialylation levels of the resulting IgG2, the cultures were supplemented with either 30, 40, 50 or 60 nM kifunensine on day 3 of the culture. A control culture was also maintained under the same conditions albeit in the absence of kifunensine.
On day 20, samples were taken from bioreactors and the percentage Fc-glycan sialylation of the IgG2 antibodies was determined as described in Example 1.

CHO cells [5] = experiment: Cell viability of CHO fed-batch cultures supplemented with kifunensine; assay type: cell-based, Chinese hamster; conditions: CHO fed-batch cultures, 30, 40, 50 or 60 nM kifunensine added on day 3
Experimental: as §3

O=C1N[C@@H]2[C@@H](O)[C@@H](O)[C@H](O)[C@@H](CO)N2C1=O [kifunensine, (5R,6R,7S,8R,8aS)-6,7,8-trihydroxy-5-(hydroxymethyl)-1,5,6,7,8,8a-hexahydroimidazo[1,2-a]pyridine-2,3-dione]
impact on cell viability (Sp2/0 cells [1]): No significant impact on cell viability
kifunensine concentration giving peak sialylation levels (Sp2/0 cells [2]; culture day 18, FIG. 1): 12 µg/L
kifunensine concentration at which an increase in sialylation compared to control was evident (Sp2/0 cells [2]; culture day 18, FIG. 1, particularly 9 and 12 μg/L): ≥ 6 µg/L
kifunensine concentration giving peak sialylation levels (molar) (Sp2/0 cells [2]; culture day 18, conversion of 12 μg/L): ~52 nM
mannosylation of recombinant human EPO compared to cultures without kifunensine (CHO cells [3]): increased
sialylation of recombinant human EPO compared to cultures without kifunensine (CHO cells [3]): increased
kifunensine concentration at which an increase in Fc-glycan sialylation compared to control was evident (CHO cells [4]): > 40 nM
kifunensine concentration giving peak Fc-glycan sialylation (CHO cells [4]): 60 nM
impact on cell viability (CHO cells [5]): No significant impact on cell viability
